Biological target: T1, hMC2 receptor (Homo sapiens, UniProt Q01718)
T1 construct: host or cells: CRE-bla-CHO-K1 cells
Assay: hMC2 membrane binding assay ([125I]ACTH (1-39) Tyr23, SPA)
Settings: crude membranes of CRE-bla-CHO-K1 cells expressing hMC2 receptor and hMRAP; 0.2 nM [125I]ACTH (1-39) Tyr23; 1.5 hours at room temperature; read-out: MC2R binding potency
Method: Crude membrane fractions are prepared from CRE-bla-CHO-K1 cells stably expressing hMC2 receptor and hMRAP accessory protein (Thermo Fisher). The cells are grown to 85-100% confluence on standard tissue culture dishes in GlutaMax DMEM growth media (Gibco) with following additives: 10% dialyzed FBS (Gemini), 0.1 mM NEAA (Gibco), 25 mM HEPES (Gibco), 5 μg/mL blasticidin (Goldbio), 100 μg/mL zeocin (Invitrogen), 600 μg/mL hygromycin (Goldbio). To prepare membranes, cells are scraped and collected in 1× Dulbecco's phosphate buffered saline (Corning) and then pelleted at 1000 RPM's. The cell pellet is reconstituted in membrane preparation buffer (20 mM HEPES, 6 mM MgCl2 and 1 mM EGTA, protease inhibitor tablets (Pierce) adjusted to pH 7.4), homogenized using a dounce homogenizer, and the resulting membrane fraction is pelleted by centrifugation at 12,000 RPM's. The membrane pellet is resuspended in membrane preparation buffer, snap freezed and stored at −80° C. for later use.
The hMC2 membrane binding assay utilizes the following components: radiolabel [^125I]ACTH (1-39) Tyr23 (PerkinElmer), wheatgerm agglutinin coated PVT SPA beads (PerkinElmer), crude hMC2R membranes, and compounds. Briefly hMC2R membranes are incubated with SPA beads in binding assay buffer (50 mM HEPES, 5 mM MgCl2, 1 mM CaCl2), 0.2% BSA, protease inhibitor tablets (Pierce) adjusted to pH7.4) prior to assay initiation. […] Assay plates are read using a Top Count NXT and Ki values for compounds are determined using a GraphPad Prism 6 non-linear regression analysis.

T1 sequence (Q01718 whole entry): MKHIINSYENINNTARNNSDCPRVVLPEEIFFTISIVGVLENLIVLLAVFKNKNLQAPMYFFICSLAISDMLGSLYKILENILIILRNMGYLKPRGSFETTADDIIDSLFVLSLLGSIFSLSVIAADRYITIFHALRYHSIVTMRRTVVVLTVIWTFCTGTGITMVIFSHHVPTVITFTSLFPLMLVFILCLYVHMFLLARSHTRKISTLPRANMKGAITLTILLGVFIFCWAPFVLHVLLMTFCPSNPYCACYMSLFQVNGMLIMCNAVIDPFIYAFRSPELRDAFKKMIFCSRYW
T1 sequence (Q8TCY5 whole entry partner): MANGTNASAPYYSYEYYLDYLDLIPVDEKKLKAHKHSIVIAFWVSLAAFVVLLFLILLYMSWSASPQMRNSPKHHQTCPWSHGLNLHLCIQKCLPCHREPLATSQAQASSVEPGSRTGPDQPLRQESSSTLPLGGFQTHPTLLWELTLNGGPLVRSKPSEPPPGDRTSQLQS

Ki [nM] | Compound
< 10 | CCOc1ncccc1-c1ccc2c(n1)N(C(=O)CCNC)CC21CCN(c2ccc(C(F)(F)F)cc2C#N)CC1 [1-50, 2-[6′-(2-ethoxypyridin-3-yl)-1′-[3-(methylamino)propanoyl]-1′,2′-dihydrospiro[piperidine-4,3′-pyrrolo[2,3-b]pyridin]-1-yl]-5-(trifluoromethyl)benzonitrile]
< 10 | CCOc1ncccc1-c1ccc2c(n1)N(C(=O)CCN)CC21CCN(c2ccc(C(F)(F)F)cc2C#N)CC1 [1-28, 2-[1′-(3-aminopropanoyl)-6′-(2-ethoxypyridin-3-yl)-1′,2′-dihydrospiro[piperidine-4,3′-pyrrolo[2,3-b]pyridin]-1-yl]-5-(trifluoromethyl)benzonitrile]
10 to 100 | CCOc1ncccc1-c1ccc2c(n1)N([C@H]1CCNC1)CC21CCN(c2ccc(C(F)(F)F)cc2C#N)CC1 [1-53, 2-[6′-(2-ethoxypyridin-3-yl)-1′-[(3S)-pyrrolidin-3-yl]-1′,2′-dihydrospiro[piperidine-4,3′-pyrrolo[2,3-b]pyridin]-1-yl]-5-(trifluoromethyl)benzonitrile]
10 to 100 | CCOc1ncccc1-c1ccc2c(n1)N(C(=O)[C@@H](C)N)CC21CCN(c2ccc(C(F)(F)F)cc2C#N)CC1 [1-47, 2-{1′-[(2R)-2-aminopropanoyl]-6′-(2-ethoxypyridin-3-yl)-1′,2′-dihydrospiro[piperidine-4,3′-pyrrolo[2,3-b]pyridin]-1-yl}-5-(trifluoromethyl)benzonitrile]
< 10 | CCOc1ncccc1-c1ccc2c(n1)N(C(=O)[C@H](C)N)CC21CCN(c2ccc(C(F)(F)F)cc2C#N)CC1 [1-48, 2-{1′-[(2S)-2-aminopropanoyl]-6′-(2-ethoxypyridin-3-yl)-1′,2′-dihydrospiro[piperidine-4,3′-pyrrolo[2,3-b]pyridin]-1-yl}-5-(trifluoromethyl)benzonitrile]
< 10 | CCOc1ncccc1-c1ccc2c(n1)N(CCCN)CC21CCN(c2ccc(C(F)(F)F)cc2C#N)CC1 [1-54, 2-[1′-(3-aminopropyl)-6′-(2-ethoxypyridin-3-yl)-1′,2′-dihydrospiro[piperidine-4,3′-pyrrolo[2,3-b]pyridin]-1-yl]-5-(trifluoromethyl)benzonitrile]
< 10 | CCOc1ncccc1-c1ccc2c(n1)N(C[C@H](N)CO)CC21CCN(c2ccc(C(F)(F)F)cc2C#N)CC1 [1-51, 2-{1′-[(2S)-2-amino-3-hydroxypropyl]-6′-(2-ethoxypyridin-3-yl)-1′,2′-dihydrospiro[piperidine-4,3′-pyrrolo[2,3-b]pyridin]-1-yl}-5-(trifluoromethyl)benzonitrile]
< 10 | CCOc1ncccc1-c1ccc2c(n1)N(C(=O)NCCNC)CC21CCN(c2ccc(C(F)(F)F)cc2C#N)CC1 [1-59, 1-[2-cyano-4-(trifluoromethyl)phenyl]-6′-(2-ethoxypyridin-3-yl)-N-[2-(methylamino)ethyl]-1′,2′-dihydrospiro[piperidine-4,3′-pyrrolo[2,3-b]pyridine]-1′-carboxamide]
< 10 | CCOc1ncccc1-c1ccc2c(c1)N([C@H](C)CN)CC21CCN(c2ccc(C(F)(F)F)cc2C#N)CC1 [1-40, 2-{1-[(2R)-1-aminopropan-2-yl]-6-(2-ethoxypyridin-3-yl)-1,2-dihydrospiro[indole-3,4′-piperidin]-1′-yl}-5-(trifluoromethyl)benzonitrile]

The next lines start with the compound.

Compound | Ki [nM]
CCOc1ncccc1-c1ccc2c(c1)N(C(=O)CCN)C(C)C21CCN(c2ccc(C(F)(F)F)cc2C#N)CC1 (centres unmarked) [1-26, 2-[1-(3-aminopropanoyl)-6-(2-ethoxypyridin-3-yl)-2-methyl-1,2-dihydrospiro[indole-3,4′-piperidin]-1′-yl]-5-(trifluoromethyl)benzonitrile] | 10 to 100
CCOc1ncccc1-c1ccc2c(c1)N(C[C@H](C)N)C(=O)CC21CCN(c2ccc(C(F)(F)F)cc2C#N)CC1 [1-68, 2-{1′-[(2S)-2-aminopropyl]-7′-(2-ethoxypyridin-3-yl)-2′-oxo-2′,3′-dihydro-1′H-spiro[piperidine-4,4′-quinolin]-1-yl}-5-(trifluoromethyl)benzonitrile] | 10 to 100
CCOc1ncccc1-c1ccc2c(c1)N(CCN)C(=O)NC21CCN(c2ccc(C(F)(F)F)cc2C#N)CC1 [1-64, 2-[1′-(2-aminoethyl)-7′-(2-ethoxypyridin-3-yl)-2′-oxo-2′,3′-dihydro-1′H-spiro[piperidine-4,4′-quinazolin]-1-yl]-5-(trifluoromethyl)benzonitrile] | < 10
CCOc1ncccc1-c1ccc2c(c1)N(C(=O)NCCN)CC21CCN(c2ccc(C(F)(F)F)cc2C#N)CC1 [1-27, N-(2-aminoethyl)-1′-[2-cyano-4-(trifluoromethyl)phenyl]-6-(2-ethoxypyridin-3-yl)-1,2-dihydrospiro[indole-3,4′-piperidine]-1-carboxamide] | 10 to 100
CCOc1ncccc1-c1ccc2c(c1)N(C(=O)CCN)CC21CCN(c2cc(C#N)cc(C(F)(F)F)n2)CC1 [1-19, 2-[1-(3-aminopropanoyl)-6-(2-ethoxypyridin-3-yl)-1,2-dihydrospiro[indole-3,4′-piperidin]-1′-yl]-6-(trifluoromethyl)pyridine-4-carbonitrile] | 1000 to 10000
CCOc1ncccc1-c1ccc2c(c1)N(C(=O)CCN)CC21CCN(c2cc(OC)cc(C(F)(F)F)n2)CC1 [1-36, 3-amino-1-[6-(2-ethoxypyridin-3-yl)-1′-[4-methoxy-6-(trifluoromethyl)pyridin-2-yl]-1,2-dihydrospiro[indole-3,4′-piperidin]-1-yl]propan-1-one] | 1000 to 10000
CCOc1ncccc1-c1ccc2c(n1)N(CCN(C)C)C(=O)C21CCN(c2ccc(C(F)(F)F)cc2C#N)CC1 [1-62, 2-{1′-[2-(dimethylamino)ethyl]-6′-(2-ethoxypyridin-3-yl)-2′-oxo-1′,2′-dihydrospiro[piperidine-4,3′-pyrrolo[2,3-b]pyridin]-1-yl}-5-(trifluoromethyl)benzonitrile] | < 10
CCOc1ncccc1-c1ccc2c(c1)N(CCNC)C(=O)CC21CCN(c2ccc(C(F)(F)F)cc2C#N)CC1 [1-69, 2-[7′-(2-ethoxypyridin-3-yl)-1′-[2-(methylamino)ethyl]-2′-oxo-2′,3′-dihydro-1′H-spiro[piperidine-4,4′-quinolin]-1-yl]-5-(trifluoromethyl)benzonitrile] | 10 to 100
CCOc1ncccc1-c1ccc2c(c1)N(C[C@@H](C)N)CC21CCN(c2ccc(Cl)cc2C(F)F)CC1 [1-45, (2R)-1-{1′-[4-chloro-2-(difluoromethyl)phenyl]-6-(2-ethoxypyridin-3-yl)-1,2-dihydrospiro[indole-3,4′-piperidin]-1-yl}propan-2-amine] | 10 to 100
CCOc1ncccc1-c1ccc2c(c1)N(C[C@@H]1CCN1)CC21CCN(c2ccc(C(F)(F)F)cc2C#N)CC1 [1-39, 2-(1-{[(2S)-azetidin-2-yl]methyl}-6-(2-ethoxypyridin-3-yl)-1,2-dihydrospiro[indole-3,4′-piperidin]-1′-yl)-5-(trifluoromethyl)benzonitrile] | 10 to 100
CCOc1ncccc1-c1ccc2c(c1)N(C(=O)[C@@H]1CCNC1)CC21CCN(c2ccc(C(F)(F)F)cc2C#N)CC1 [1-9, 2-[6-(2-ethoxypyridin-3-yl)-1-[(3R)-pyrrolidine-3-carbonyl]-1,2-dihydrospiro[indole-3,4′-piperidin]-1′-yl]-5-(trifluoromethyl)benzonitrile] | 10 to 100

From patent publication US12466829B2, “Spirocyclic piperidine melanocortin subtype-2 receptor (MC2R) antagonists and uses thereof” (Crinetics Pharmaceuticals, Inc., priority 2019, dated 2025)
